# Laboratory results reported in patent publication US7572765B2, “Conformationally constrained parathyroid hormone (PTH) analogs” (The General Hospital Corporation, priority 2001, dated 2009).
# Square brackets hold non-standard residues; d marks the D form. Peptide text beside a SMILES is read from it. hArg = N=C(N)NCCCC[C@H](N)C(=O)O; Aib = CC(C)(N)C(=O)O
# How the values were obtained:
# [1] = biological target: T1, wild-type human P1R (hP1R-WT) (Homo sapiens, UniProt Q03431); assay: Stimulation of inositol phosphate production (PLC) in COS-7 cells expressing hP1R-WT; type: cell-based; conditions: for PLC EMAX(obs.) / EC50: hP1R-WT; for EC50: dash = no PLC response observed
# T1 construct: expressed in transfected cells; host or cells: COS-7 (transient, FuGENE 6)
# T1 sequence (Q03431 27-593): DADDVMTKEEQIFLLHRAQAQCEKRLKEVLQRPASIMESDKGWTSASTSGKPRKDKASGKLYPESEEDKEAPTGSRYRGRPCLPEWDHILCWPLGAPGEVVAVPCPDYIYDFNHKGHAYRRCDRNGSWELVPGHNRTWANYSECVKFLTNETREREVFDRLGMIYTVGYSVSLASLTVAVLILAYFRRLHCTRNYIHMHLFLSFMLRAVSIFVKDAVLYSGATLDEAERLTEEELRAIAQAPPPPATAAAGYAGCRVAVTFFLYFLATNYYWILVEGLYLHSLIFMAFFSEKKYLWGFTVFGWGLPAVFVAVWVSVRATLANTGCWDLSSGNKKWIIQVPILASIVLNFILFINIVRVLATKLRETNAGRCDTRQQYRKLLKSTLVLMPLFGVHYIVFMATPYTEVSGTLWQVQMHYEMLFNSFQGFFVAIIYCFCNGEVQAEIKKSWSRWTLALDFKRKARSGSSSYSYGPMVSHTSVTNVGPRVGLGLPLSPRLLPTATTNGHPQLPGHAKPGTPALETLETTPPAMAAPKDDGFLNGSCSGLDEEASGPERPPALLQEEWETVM
# Procedure: (§1) Cell Culture. The cell line HKRK-B28 (Takasu, H., et al., J. Bone Miner. Res. 14:11-20 (1999)) was derived from the porcine kidney cell line, LLC-PK1 by stable transfection with plasmid DNA encoding the human P1R and expresses ˜280,000 receptors per cell. These cells, as well as COS-7 cells and SaOS-2-B10 cells, were cultured at […] in T-75 flasks ([…]) in Dulbecco's modified Eagle's medium (DMEM) supplemented with fetal bovine serum (10%), penicillin G (20 units/ml), streptomycin sulfate (20 μg/ml) and amphotericin B (0.05 μg/ml) in a humidified atmosphere containing 5% CO2. Stock solutions of EGTA/trypsin and antibiotics were from GIBCO; fetal bovine serum was from Hyclone Laboratories (Logan, Utah). COS-7 cells sub-cultured in 24-well plates were transfected with plasmid DNA (200 ng per well) encoding the wild-type human P1R or truncated human P1R deleted for residues (24-181) (Shimizu, M., et al., J. Biol. Chem. 275:21836-21843 (2000)) that was purified by cesium chloride/ethidium bromide density gradient centrifugation, and FuGENE 6 transfection reagent (Roche Indianapolis Ind.) according to the manufacturer's recommended procedure. All cells, in 24-well plates, were treated with fresh media and shifted to 33° C. for 12 to 24 h prior to assay.
# (§2) Stimulation of Inositol Phosphate Production. COS-7 cells transfected as above with P1R-WT were treated with serum-free, inositol-free DMEM containing 0.1% bovine serum albumin and [^3H]myo-inositol (NEN, Boston, Mass.) (2 μCi/mL) for 16 h prior to assay. At the time of the assay, the cells were rinsed with binding buffer containing LiCl (30 mM) and treated with the same buffer with or without a PTH analog. The cells were then incubated at 37° C. for 40 min, after which the buffer was removed and replaced by 0.5 mL of ice cold 5% trichloroacetic acid solution. After 3 h on ice, the lysate was collected and extracted twice with ethyl ether. The lysate was then applied to an ion exchange column (0.5 mL resin bed) and the total inositol phosphates were eluted as described previously (Berridge, M. J., et al., Biochem. J. 212:473-482 (1983)), and counted in liquid scintillation cocktail.
# [2] = biological target: T2, P1R-delNt, truncated human P1R deleted for residues (24-181) (Homo sapiens, UniProt Q03431); assay: Stimulation of inositol phosphate production (PLC) in COS-7 cells expressing hP1R-delNt; type: cell-based; conditions: for increase in inositol phosphate (IP) production relative to the basal level: P1R-delNt
# T2 construct: expressed in transfected cells; host or cells: COS-7 (transient, FuGENE 6)
# T2 sequence (Q03431 with tags, fused parts or gaps limits assumed): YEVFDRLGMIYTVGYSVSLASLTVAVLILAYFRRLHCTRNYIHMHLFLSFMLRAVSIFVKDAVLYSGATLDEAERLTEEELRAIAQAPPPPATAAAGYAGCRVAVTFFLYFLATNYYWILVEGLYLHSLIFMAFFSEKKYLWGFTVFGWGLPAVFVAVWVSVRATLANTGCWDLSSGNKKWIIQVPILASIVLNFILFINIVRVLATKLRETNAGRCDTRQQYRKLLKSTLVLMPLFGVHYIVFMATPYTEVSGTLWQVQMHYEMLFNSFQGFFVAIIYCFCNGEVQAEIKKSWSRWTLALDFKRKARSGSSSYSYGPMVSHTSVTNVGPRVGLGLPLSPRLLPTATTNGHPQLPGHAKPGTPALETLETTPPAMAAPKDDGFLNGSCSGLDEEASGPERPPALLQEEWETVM
# Procedure: as §1, §2
# Thus, the truncated receptor can couple to the PCL signaling pathway when stimulated with the Aib-containing PTH peptide. […] Thus, the Aib-1,3 substitutions enhance the ligand's capacity to stimulate PLC activity with P1R-WT, as well as with P1R-delNt.
increase in IP formation ([1]; P1R-WT),PLC EMAX(obs.) [1],EC50 [1],increase in inositol phosphate (IP) production relative to the basal level [2],"PLC potency, fold more potent than [M]PTH(1-14) ([1]; P1R-WT)",PLC EMAX(obs.) ([2]; hP1R-delNT),"EC50 ([2]; hP1R-delNT, dash = no PLC response observed)",SMILES
4 fold,4.2 ± 0.6 foldxbasal,0.017 ± 0.002 µM,inactive,–,–,–,"CCCC[C@H](NC(=O)[C@H](CCCNC(=N)N)NC(=O)[C@H](CCC(=O)O)NC(=O)[C@@H](NC(=O)[C@H](CO)NC(=O)[C@H](C)NC(=O)[C@H](CC(C)C)NC(=O)[C@H](Cc1c[nH]cn1)NC(=O)[C@H](CCCCN)NC(=O)CNC(=O)[C@H](CC(C)C)NC(=O)[C@H](CC(N)=O)NC(=O)[C@H](Cc1c[nH]cn1)NC(=O)[C@H](CCCC)NC(=O)[C@H](CC(C)C)NC(=O)[C@H](CCC(N)=O)NC(=O)[C@@H](NC(=O)[C@H](CCC(=O)O)NC(=O)[C@H](CO)NC(=O)[C@@H](NC(=O)[C@H](C)N)C(C)C)[C@@H](C)CC)C(C)C)C(=O)N[C@@H](CCC(N)=O)C(=O)N[C@@H](Cc1c[nH]c2ccccc12)C(=O)N[C@@H](CC(C)C)C(=O)N[C@@H](CCCNC(=N)N)C(=O)N[C@@H](CCCCN)C(=O)N[C@@H](CCCCN)C(=O)N[C@@H](CC(C)C)C(=O)N[C@@H](CCC(N)=O)C(=O)N[C@@H](CC(=O)O)C(=O)N[C@H](C(=O)N[C@@H](Cc1c[nH]cn1)C(=O)N[C@@H](CC(N)=O)C(=O)N[C@@H](Cc1ccc(O)cc1)C(N)=O)C(C)C [PTH(1-34), [Nle^8,21, Tyr^34]PTH(1-34)amide, reference compound]"
4 fold,4.3 ± 0.6 foldxbasal,0.071 ± 0.009 µM,~3 fold,66 fold,3.1 ± 0.2 foldxbasal,0.13 ± 0.03 µM,"CC[C@H](C)[C@H](NC(=O)[C@H](CCC(=O)O)NC(=O)C(C)(C)NC(=O)[C@@H](NC(=O)C(C)(C)N)C(C)C)C(=O)N[C@@H](CCC(N)=O)C(=O)N[C@@H](CC(C)C)C(=O)N[C@@H](CCSC)C(=O)N[C@@H](Cc1c[nH]cn1)C(=O)N[C@@H](CCC(N)=O)C(=O)N[C@@H](CCCCNC(=N)N)C(=O)N[C@@H](C)C(=O)N[C@@H](CCCCN)C(=O)N[C@@H](Cc1c[nH]c2ccccc12)C(N)=O [[Aib^1,3,M]PTH(1-14), AibValAibGluIleGlnLeuMetHisGlnHarAlaLysTrp] (H-[Aib]V[Aib]EIQLMHQ[hArg]AKW-NH2)"
4 fold,3.9 ± 0.5 foldxbasal,–,inactive,–,–,–,"CC[C@H](C)[C@H](NC(=O)[C@H](CCC(=O)O)NC(=O)[C@H](C)NC(=O)[C@@H](NC(=O)[C@H](C)N)C(C)C)C(=O)N[C@@H](CCC(N)=O)C(=O)N[C@@H](CC(C)C)C(=O)N[C@@H](CCSC)C(=O)N[C@@H](Cc1c[nH]cn1)C(=O)N[C@@H](CCC(N)=O)C(=O)N[C@@H](CCCCNC(=N)N)C(=O)N[C@@H](C)C(=O)N[C@@H](CCCCN)C(=O)N[C@@H](Cc1c[nH]c2ccccc12)C(N)=O [[M]PTH(1-14), [Ala^3,12,Gln^10,Har^11,Trp^14]PTH(1-14)amide, reference compound] (H-AVAEIQLMHQ[hArg]AKW-NH2)"
